49 compounds from US8765944B2, “Compounds for the treatment of hepatitis C” (priority 2010, dated 2014) can be followed below.

The EC50 is the concentration at which the effect is half-maximal. Low values mean higher potency in that assay, high ones lower potency in that assay.

The test has as its system HCV pseudoparticles. The test can be described thus: HCV pseudoparticle infection assay (luciferase reporter, Huh7 cells). The format is cell-based, HCV (genotype 1b E1 and E2 envelope). The conditions noted are these: Hepatitis C virus, genotype 1b, Huh-7, 48 h, HCV pseudoparticles (genotype 1b), luciferase activity 2 days after infection.

Consider `O=C(CCCNC(=O)c1ccc(Nc2nc(NC3(c4ccc(Cl)cc4)CC3)nc(OCC(F)(F)F)n2)cc1)NC1(C(=O)NS(=O)(=O)C2CC2)CC1` [Example 2033], for which the EC50 (class) was in the range of 0.0005 to 0.1 µM. With `C=C[C@@H]1C[C@]1(NC(=O)C(C)(C)CNC(=O)c1ccc(Nc2nc(NC3(c4ccc(Cl)cc4)CC3)nc(OCC(F)(F)F)n2)cc1)C(=O)NS(=O)(=O)C(C)(C)C` [Example 2082], the EC50 (class) is 0.0005 to 0.1 µM.

`CC(C)C(=O)NCCS(=O)(=O)NC(=O)c1ccc(Nc2nc(NC3(c4ccc(Cl)cc4)CC3)nc(OCC(F)(F)F)n2)cc1` [Example 1038] gave an EC50 (class) of 0.0005 to 0.1 µM.

Where the note is “class”, `CC(C)(CNC(=O)c1ccc(Nc2nc(NC3(c4ccc(Cl)cc4)CC3)nc(OCC(F)(F)F)n2)cc1)C(=O)N[C@]1(C(=O)NS(=O)(=O)C2CC2)C[C@H]1C1CC1` [Example 2081] gave a concentration for a half-maximal effect (EC50) of 0.0005 to 0.1 µM. As to `O=C(CCCNC(=O)c1ccc(Nc2nc(NC3(c4ccc(Cl)cc4)CC3)nc(OCC(F)(F)F)n2)cc1)N[C@]1(C(=O)NS(=O)(=O)C2CCC2)C[C@H]1C1CC1` [Example 2042], the EC50 (class) was in the range of 0.0005 to 0.1 µM.

`O=C(NS(=O)(=O)CCNCc1ccccc1)c1ccc(Nc2nc(NC3(c4ccc(Cl)cc4)CC3)nc(OCC(F)(F)F)n2)cc1` [Example 1034]: the EC50 (class) lay within 0.0005 to 0.1 µM. As for `CC(C)(C)OC(=O)N1C[C@@H](NC(=O)c2ccc(Nc3nc(NC4(c5ccc(Cl)cc5)CC4)nc(OCC(F)(F)F)n3)cc2)C[C@@H]1C(=O)NC1(C(=O)NS(=O)(=O)C2CC2)CC1` [Example 5002], the EC50 (class) lay within 0.0005 to 0.1 µM.

Compound `O=C(CCCNC(=O)c1ccc(Nc2nc(NC3(c4ccc(Cl)cc4)CC3)nc(OCC(F)(F)F)n2)cc1)N[C@]1(C(=O)NS(=O)(=O)C2(C(F)F)CC2)C[C@H]1C1CC1` [Example 2045] gave an EC50 of 0.00072 µM. Also, for the setting “class”, the EC50 is 0.0005 to 0.1 µM.

For the compound `COCC1(S(=O)(=O)N(C)C(=O)c2ccc(N(C)c3nc(NC4(c5ccc(Cl)cc5)CC4)nc(OC)n3)cc2)CC1` [Example 8008], for the setting “class”, the EC50 fell in the range of 1 to 5 µM. With `CC1(C)CCCN1CC1(S(=O)(=O)NC(=O)c2ccc(Nc3nc(NC4(c5ccc(Cl)cc5)CC4)nc(OCC(F)(F)F)n3)cc2)CC1` [Example 1016], under “class”, the EC50 lay within 0.0005 to 0.1 µM. `O=C(NS(=O)(=O)C1(CO)CC1)c1ccc(Nc2nc(NC3(c4ccc(Cl)cc4)CC3)nc(OCC(F)(F)F)n2)cc1` [Example 1025, 4-(4-(1-(4-chlorophenyl)cyclopropylamino)-6-(2,2,2-trifluoroethoxy)-1,3,5-triazin-2-ylamino)-N-(1-(hydroxymethyl)cyclopropylsulfonyl)benzamide]: the EC50 (class) fell in the range of 0.0005 to 0.1 µM. The compound `CCC1(S(=O)(=O)NC(=O)c2ccc(Nc3nc(NC4(c5ccc(Cl)cc5)CC4)nc(OCC(F)(F)F)n3)cc2)CC1` [Example 1008] returned an EC50 of 0.081 µM. The compound further had an EC50 (class) of 0.0005 to 0.1 µM. As to `CN(C)S(=O)(=O)NC(=O)CCCNC(=O)c1ccc(Nc2nc(NC3(c4ccc(Cl)cc4)CC3)nc(OCC(F)(F)F)n2)cc1` [Example 2025], for the setting “class”, the EC50 fell in the range of 0.0005 to 0.1 µM. Same read-out and setting: the value for `CCN(CC)CC1(S(=O)(=O)NC(=O)c2ccc(Nc3nc(NC4(c5ccc(Cl)cc5)CC4)nc(OCC(F)(F)F)n3)cc2)CC1` [Example 1014] was 0.0005 to 0.1 µM; that for `C=C[C@@H]1C[C@]1(NC(=O)CCCCNC(=O)c1ccc(Nc2nc(NC3(c4ccc(Cl)cc4)CC3)nc(OCC(F)(F)F)n2)cc1)C(=O)NS(=O)(=O)C(C)(C)C` [Example 2027] was 0.0005 to 0.1 µM. In turn, `O=C(NS(=O)(=O)CCCCl)c1ccc(Nc2nc(NC3(c4ccc(Cl)cc4)CC3)nc(OCC(F)(F)F)n2)cc1` [Example 1009] yielded an EC50 (class) of 0.0005 to 0.1 µM. The same measure, in the same setting: for `CN(CC1(S(=O)(=O)NC(=O)c2ccc(Nc3nc(NC4(c5ccc(Cl)cc5)CC4)nc(OCC(F)(F)F)n3)cc2)CC1)C1CC1` [Example 1022] the value was 0.0005 to 0.1 µM.

In the case of `CS(=O)(=O)NC(=O)CCCCNC(=O)c1ccc(Nc2nc(NC3(c4ccc(Cl)cc4)CC3)nc(OCC(F)(F)F)n2)cc1` [Example 2011], for the setting “class”, the EC50 was 0.0005 to 0.1 µM.

In turn, `C=CS(=O)(=O)NC(=O)CCCCNC(=O)c1ccc(Nc2nc(NC3(c4ccc(Cl)cc4)CC3)nc(OCC(F)(F)F)n2)cc1` [Example 2015] yielded an EC50 (class) of 0.0005 to 0.1 µM.

Turning to `CN(C)CC1(S(=O)(=O)NC(=O)c2ccc(Nc3nc(OCC(F)(F)F)nc(N4CCN(C(=O)OC(C)(C)C)CC4)n3)cc2)CC1` [Example 8028], the concentration for a half-maximal effect (EC50) was found to be 17.6 µM. This compound also yielded a 50% effective concentration (EC50) (class) of 1 to 5 µM. Consider `CCN(CC)CC1(C(=O)NS(=O)(=O)c2ccc(Nc3nc(NC4(c5ccc(Cl)cc5)CC4)nc(OCC(F)(F)F)n3)cc2)CC1` [Example 3004], for which a half-maximal effect (EC50) was put at 1.64 µM. Under “class”, the EC50 was in the range of 1 to 5 µM. On to `CC(=O)N1CCN(CC2(S(=O)(=O)NC(=O)c3ccc(Nc4nc(NC5(c6ccc(Cl)cc6)CC5)nc(OCC(F)(F)F)n4)cc3)CC2)CC1` [Example 1018], for which the EC50 (class) lay within 0.0005 to 0.1 µM. Still for that read-out and setting: the value for `COC(=O)NCCS(=O)(=O)NC(=O)c1ccc(Nc2nc(NC3(c4ccc(Cl)cc4)CC3)nc(OCC(F)(F)F)n2)cc1` [Example 1044] was 0.0005 to 0.1 µM; that for `C=CS(=O)(=O)NC(=O)C1(CNC(=O)c2ccc(Nc3nc(NC4(c5ccc(Cl)cc5)CC4)nc(OCC(F)(F)F)n3)cc2)CC1` [Example 2072] was 0.0005 to 0.1 µM; that for `Cn1cnc(C[C@H](NC(=O)c2ccc(Nc3nc(NC4(c5ccc(Cl)cc5)CC4)nc(OCC(F)(F)F)n3)cc2)C(=O)N[C@]2(C(=O)NS(=O)(=O)C3CC3)C[C@H]2C2CC2)c1` [Example 8019] was 0.0005 to 0.1 µM.

`CS(=O)(=O)NC(=O)c1ccc(Nc2nc(NC3(c4ccc(Cl)cc4)CC3)nc(OCC(F)(F)F)n2)cc1` [Example 1002] showed an EC50 (class) of 0.0005 to 0.1 µM. `CN(CC1(S(=O)(=O)NC(=O)c2ccc(Nc3nc(NC4(c5ccc(Cl)cc5)CC4)nc(OCC(F)(F)F)n3)cc2)CC1)c1ccccc1` [Example 1021]: the EC50 came out at 0.094 µM. The compound further gave an EC50 (class) of 0.0005 to 0.1 µM. Under “class”, `C=C[C@@H]1C[C@]1(NC(=O)C(C)(C)CNC(=O)c1ccc(Nc2nc(NC3(c4ccc(Cl)cc4)CC3)nc(OCC(F)(F)F)n2)cc1)C(=O)NS(=O)(=O)C1CC1` [Example 2080] showed a concentration for a half-maximal effect (EC50) of 0.0005 to 0.1 µM. In the case of `CCS(=O)(=O)NC(=O)C1(CNC(=O)c2ccc(Nc3nc(NC4(c5ccc(Cl)cc5)CC4)nc(OCC(F)(F)F)n3)cc2)CC1` [Example 2073], the EC50 (class) is 0.0005 to 0.1 µM. On the same count and under the same terms, for `CC(=O)NS(=O)(=O)CCNC(=O)c1ccc(Nc2nc(NC3(c4ccc(Cl)cc4)CC3)nc(OCC(F)(F)F)n2)cc1` [Example 4000] the value was 0.0005 to 0.1 µM. Still for that read-out and setting: for `CCN(CC)CCS(=O)(=O)NC(=O)c1ccc(Nc2nc(NC3(c4ccc(Cl)cc4)CC3)nc(OCC(F)(F)F)n2)cc1` [Example 1032] the value was 0.0005 to 0.1 µM. The same measure, in the same setting: the value for `Cn1cnc(C[C@H](NC(=O)c2ccc(Nc3nc(NC4(c5ccc(Cl)cc5)CC4)nc(OCC(F)(F)F)n3)cc2)C(=O)NS(=O)(=O)C2CC2)c1` [Example 8018] was 0.0005 to 0.1 µM. Turning to `O=C(CCCCNC(=O)c1ccc(Nc2nc(NC3(c4ccc(Cl)cc4)CC3)nc(OCC(F)(F)F)n2)cc1)NS(=O)(=O)C1CC1` [Example 2012], where the note is “class”, the EC50 lay within 0.0005 to 0.1 µM. `CN(C)CC1(S(=O)(=O)NC(=O)c2ccc(Nc3nc(OCC(F)(F)F)nc(N4CCN(C(=O)c5ccccc5F)CC4)n3)cc2)CC1` [Example 8029] had an EC50 (class) of 1 to 5 µM.

Regarding `CC(C)N(C(=O)C1(CNC(=O)c2ccc(Nc3nc(NC4(c5ccc(Cl)cc5)CC4)nc(OCC(F)(F)F)n3)cc2)CC1)S(N)(=O)=O` [Example 2079], where the note is “class”, the EC50 was in the range of 0.0005 to 0.1 µM. Compound `C=CS(=O)(=O)NC(=O)CNC(=O)c1ccc(Nc2nc(NC3(c4ccc(Cl)cc4)CC3)nc(OCC(F)(F)F)n2)cc1` [Example 2010] returned an EC50 of 0.067 µM. The same compound came in with a concentration giving a half-maximal response (EC50) (class) of 0.0005 to 0.1 µM. Under “class”, `CCC1(S(=O)(=O)NC(=O)C2(CNC(=O)c3ccc(Nc4nc(NC5(c6ccc(Cl)cc6)CC5)nc(OCC(F)(F)F)n4)cc3)CC2)CC1` [Example 2076] registered an EC50 of 0.0005 to 0.1 µM. Same read-out and setting: the value for `O=C(CCCNC(=O)c1ccc(Nc2nc(NC3(c4ccc(Cl)cc4)CC3)nc(OCC(F)(F)F)n2)cc1)N[C@]1(C(=O)NS(=O)(=O)C2(F)CC2)C[C@H]1C1CC1` [Example 2044] was 0.0005 to 0.1 µM; that for `O=C(NCC1(CN2CCCC2)CC1)c1ccc(Nc2nc(NC3(c4ccc(C(=O)NS(=O)(=O)C5CCC5)cc4)CC3)nc(OCC(F)(F)F)n2)cc1` [Example 7002] was 0.0005 to 0.1 µM. For the setting “class”, `COCC1(S(=O)(=O)NC(=O)c2ccc(N(C)c3nc(OCC(F)(F)F)nc(N(C)C4(c5ccc(Cl)cc5)CC4)n3)cc2)CC1` [Example 8010] displayed an EC50 of 1 to 5 µM.

Turning to `CC(C)S(=O)(=O)N1CCN(c2nc(Nc3ccc(C(=O)NS(=O)(=O)C4(CN(C)C)CC4)cc3)nc(OCC(F)(F)F)n2)CC1` [Example 8026], the EC50 (class) was 1 to 5 µM. Under “class”, `CC(=O)N1CCN(c2nc(Nc3ccc(C(=O)NS(=O)(=O)C4(CN(C)C)CC4)cc3)nc(OCC(F)(F)F)n2)CC1` [Example 8024] came in with an EC50 of 1 to 5 µM. As for `CC(C)S(=O)(=O)NC(=O)CCNC(=O)CCCNC(=O)c1ccc(Nc2nc(NC3(c4ccc(Cl)cc4)CC3)nc(OCC(F)(F)F)n2)cc1` [Example 2061], the EC50 (class) is 0.0005 to 0.1 µM. The same measure, in the same setting: for `CC(C)C(=O)NS(=O)(=O)CCNC(=O)c1ccc(Nc2nc(NC3(c4ccc(Cl)cc4)CC3)nc(OCC(F)(F)F)n2)cc1` [Example 4001] the value was 0.0005 to 0.1 µM; for `CN(C)S(=O)(=O)NC(=O)[C@@]1(NC(=O)CCCNC(=O)c2ccc(Nc3nc(NC4(c5ccc(Cl)cc5)CC4)nc(OCC(F)(F)F)n3)cc2)C[C@H]1C1CC1(F)F` (some centres unmarked) [Example 2049], 0.0005 to 0.1 µM; for `CC(C)S(=O)(=O)NC(=O)C(C)(C)CNC(=O)c1ccc(Nc2nc(NC3(c4ccc(Cl)cc4)CC3)nc(OCC(F)(F)F)n2)cc1` [Example 2088], 0.0005 to 0.1 µM. On to `O=C(NS(=O)(=O)c1ccc(Nc2nc(NC3(c4ccc(Cl)cc4)CC3)nc(OCC(F)(F)F)n2)cc1)C1(CN2CCCCC2)CC1` [Example 3002], for which a half-maximal effect (EC50) was put at 0.477 µM. Further, the EC50 (class) was 0.1 to 1 µM.

As to `CN(C)S(=O)(=O)NC(=O)CCNC(=O)CCCNC(=O)c1ccc(Nc2nc(NC3(c4ccc(Cl)cc4)CC3)nc(OCC(F)(F)F)n2)cc1` [Example 2060], where the note is “class”, the EC50 was 0.0005 to 0.1 µM. With `O=C(CCCCNC(=O)c1ccc(Nc2nc(NC3(c4ccc(Cl)cc4)CC3)nc(OCC(F)(F)F)n2)cc1)NS(=O)(=O)C1CCC1` [Example 2028], the EC50 (class) lay within 0.0005 to 0.1 µM.
